Measurements: ChEMBL document CHEMBL1201862, “PubChem BioAssay data set” (2004)
Calls of active or inactive are those of the source.

How the values were obtained:
Cytochrome P450 3A4 = Cytochrome P450 3A4 (Homo sapiens, UniProt P08684);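 note: CYP3A4 tested as one member of a cytochrome P450 panel screen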
Cytochrome P450 2D6 = Cytochrome P450 2D6 (Homo sapiens, UniProt P10635);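 note: CYP2D6 member of a cytochrome P450 panel assay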
Streptococcus = assay: GAS UMAA2166 growth inhibition – luminescence, BacTiterGlo, counter-screen for streptokinase expression inhibitor project, dose response (AID 1915); assay type: functional, organism-based;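 note: potency for reduction of bacterial viability or growth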
Streptokinase A = molecular target: T1, Streptokinase A (Streptococcus pyogenes serotype M1, UniProt P10520); assay: viability-normalized secreted streptokinase activity reduction – plasminogen activation absorbance, OD405, dose response (AID 1914); assay type: functional, Streptococcus pyogenes M1 GAS;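 note: secreted streptokinase activity via plasminogen activation per viability signal from cell pellet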
T1 sequence (P10520 whole entry): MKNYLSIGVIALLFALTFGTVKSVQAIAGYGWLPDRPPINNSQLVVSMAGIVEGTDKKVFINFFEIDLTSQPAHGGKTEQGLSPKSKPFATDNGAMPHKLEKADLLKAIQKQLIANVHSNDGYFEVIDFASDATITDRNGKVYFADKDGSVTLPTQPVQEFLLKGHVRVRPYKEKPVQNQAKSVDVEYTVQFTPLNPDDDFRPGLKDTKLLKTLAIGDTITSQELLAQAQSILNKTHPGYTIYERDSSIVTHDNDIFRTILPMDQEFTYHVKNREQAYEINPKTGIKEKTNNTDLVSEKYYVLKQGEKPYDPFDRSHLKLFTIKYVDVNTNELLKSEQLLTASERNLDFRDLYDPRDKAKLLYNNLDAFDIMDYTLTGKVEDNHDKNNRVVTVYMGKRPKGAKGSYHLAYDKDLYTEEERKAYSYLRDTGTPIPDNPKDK

[1] = system: Streptococcus sp. 'group A'; assay: Streptococcus pyogenes SK(-)GAS viability under kanamycin – luminescence, BacTiterGlo, confirmation, counter-screen for streptokinase expression inhibitor project, dose response (AID 1900); assay type: functional, organism-based
[2] = NIH3T3 cell viability loss – ATP luminescence, mouse fibroblasts, counter-screen, dose response (AID 2010); assay type: functional, cell-based;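 note: cells exposed to compound for about 90 hours before reading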
[3] = Luminescence Cell-Based Dose Response HTS to Identify Inhibitors of 5'UTR Stem-Loop Driven Prion Protein mRNA Translation in H4 Neuroglioblastoma Cells. [Related pubchem assays: 1827 (Project Summary), 1813 (Primary HTS)]; assay type: functional
[4] = alpha-synuclein stem-loop luciferase translation blockers – H4 neuroglioma cells, luminescence, confirmation (AID 1988); assay type: functional, cell-based
[5] = luciferase reporter signal suppression in cells – H4 neuroglioma cells, luminescence, dose response (AID 1990); assay type: functional, cell-based
[6] = Trypanosoma cruzi growth suppression in host cells – NIH3T3 host cells, beta-gal luminescence, confirmation (AID 2044); assay type: functional, cell-based;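 note: intracellular parasites grown in NIH/3T3 mouse fibroblasts as host cells; luminescent beta-galactosidase reporter signal from transgenic T. cruzi replicating inside host cells; inhibitors lower the luminescence signal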
Cytochrome P450 1A2 = molecular target: T2, Cytochrome P450 1A2 (Homo sapiens, UniProt P05177);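 note: PubChem cytochrome P450 panel assay, CYP1A2 panel member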
T2 sequence (P05177 whole entry): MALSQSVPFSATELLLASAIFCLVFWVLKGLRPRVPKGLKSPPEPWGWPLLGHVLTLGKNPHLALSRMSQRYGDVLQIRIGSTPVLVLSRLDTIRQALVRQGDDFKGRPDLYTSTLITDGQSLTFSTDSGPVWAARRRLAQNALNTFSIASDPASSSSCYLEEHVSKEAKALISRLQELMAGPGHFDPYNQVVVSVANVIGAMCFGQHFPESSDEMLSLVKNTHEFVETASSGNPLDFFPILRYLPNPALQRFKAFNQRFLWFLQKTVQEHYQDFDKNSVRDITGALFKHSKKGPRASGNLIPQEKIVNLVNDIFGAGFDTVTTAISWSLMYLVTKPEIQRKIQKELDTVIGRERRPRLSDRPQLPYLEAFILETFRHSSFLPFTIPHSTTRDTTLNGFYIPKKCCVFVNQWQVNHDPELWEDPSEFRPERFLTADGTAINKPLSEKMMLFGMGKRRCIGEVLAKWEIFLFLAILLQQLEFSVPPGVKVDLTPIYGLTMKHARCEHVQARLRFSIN

INS1 = assay: INS-1E survival protection against cytokine death – cell-based, luminescence, retest, dose response (AID 449756); assay type: functional; settings: Rattus norvegicus, INS1;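 note: cell death triggered by IL-1 beta plus TNF-alpha plus IFN-gamma mixture; protective hits raise ATP signal compared with cytokine alone wells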
Cytochrome P450 2C19 = Cytochrome P450 2C19 (Homo sapiens, UniProt P33261); assay: Cytochrome panel assay with activity outcomes. Panel member name: p450-cyp2c19 Compounds with AC50 equal or less than 10 uM are considered active; assay type: functional; settings: read-out: AC50
Sequence of Cytochrome P450 2C19 (P33261 whole entry): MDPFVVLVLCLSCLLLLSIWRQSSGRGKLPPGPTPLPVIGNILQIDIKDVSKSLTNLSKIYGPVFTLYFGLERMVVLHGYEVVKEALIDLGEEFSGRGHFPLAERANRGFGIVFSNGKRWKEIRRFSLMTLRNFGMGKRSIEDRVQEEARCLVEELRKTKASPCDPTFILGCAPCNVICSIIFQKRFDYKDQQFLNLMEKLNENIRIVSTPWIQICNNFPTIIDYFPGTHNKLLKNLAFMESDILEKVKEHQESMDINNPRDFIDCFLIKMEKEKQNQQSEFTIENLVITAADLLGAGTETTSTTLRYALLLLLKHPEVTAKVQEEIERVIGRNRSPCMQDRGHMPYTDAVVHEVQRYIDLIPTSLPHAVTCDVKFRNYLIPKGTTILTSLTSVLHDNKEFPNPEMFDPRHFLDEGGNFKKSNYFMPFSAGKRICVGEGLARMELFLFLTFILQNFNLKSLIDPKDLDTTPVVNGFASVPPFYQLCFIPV

Sequence of Cytochrome P450 2D6 (P10635 whole entry): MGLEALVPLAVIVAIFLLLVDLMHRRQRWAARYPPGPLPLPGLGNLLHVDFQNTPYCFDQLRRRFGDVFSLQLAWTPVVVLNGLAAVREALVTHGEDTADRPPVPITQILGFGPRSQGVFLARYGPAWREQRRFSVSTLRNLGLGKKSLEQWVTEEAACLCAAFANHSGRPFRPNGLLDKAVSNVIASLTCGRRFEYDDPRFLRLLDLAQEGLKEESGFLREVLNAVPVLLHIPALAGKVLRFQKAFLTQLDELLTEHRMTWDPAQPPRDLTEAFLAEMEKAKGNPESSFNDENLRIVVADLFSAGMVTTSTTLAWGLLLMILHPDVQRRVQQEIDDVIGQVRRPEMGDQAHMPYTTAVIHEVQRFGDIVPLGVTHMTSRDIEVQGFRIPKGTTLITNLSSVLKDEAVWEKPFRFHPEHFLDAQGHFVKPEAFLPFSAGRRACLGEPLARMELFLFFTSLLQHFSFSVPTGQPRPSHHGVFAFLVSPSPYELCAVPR
Sequence of Cytochrome P450 3A4 (P08684 whole entry): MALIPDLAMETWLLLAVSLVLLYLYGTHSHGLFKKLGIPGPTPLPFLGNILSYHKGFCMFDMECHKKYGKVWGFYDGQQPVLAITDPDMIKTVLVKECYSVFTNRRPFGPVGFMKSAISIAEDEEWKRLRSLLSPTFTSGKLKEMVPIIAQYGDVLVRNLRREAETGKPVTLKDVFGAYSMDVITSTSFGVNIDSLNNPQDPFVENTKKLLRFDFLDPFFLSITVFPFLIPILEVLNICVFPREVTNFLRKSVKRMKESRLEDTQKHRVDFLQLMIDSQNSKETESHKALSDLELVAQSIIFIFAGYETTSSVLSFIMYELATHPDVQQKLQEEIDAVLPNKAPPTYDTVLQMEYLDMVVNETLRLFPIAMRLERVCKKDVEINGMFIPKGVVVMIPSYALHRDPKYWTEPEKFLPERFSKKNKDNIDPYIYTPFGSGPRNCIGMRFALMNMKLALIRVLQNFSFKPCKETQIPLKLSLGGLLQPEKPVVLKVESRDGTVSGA

## O=C(N/N=C/c1c[nH]c2ccccc12)c1ccn(Cc2ccc(Cl)cc2Cl)n1
Cytochrome P450 3A4
  AC50: 3.55 µM (inconclusive)
Cytochrome P450 2D6
  AC50: 7.08 µM (inconclusive)

## CC(C)=CCc1c(-c2ccc(O)cc2O)oc2c3c(cc(O)c2c1=O)OC(C)(C)C=C3 [MORUSIN]
Streptococcus
  EC50: 2.96 µM (active)
Streptokinase A
  EC50: 1.15 µM (active)
[1]
  EC50: 2.71 µM (active)

## CCCOc1ccc(/C=C/c2c([N+](=O)[O-])c(=O)n(C)c(=O)n2C)cc1
Streptococcus
  EC50: > 150 µM (not active)
Streptokinase A
  EC50: > 150 µM (not active)
[1]
  EC50: 26.9 µM (active)

## O=C(NC1CCN(Cc2ccccc2)CC1)c1cc(Br)c(Br)[nH]1
[2]
  EC50: > 60 µM (not active)
[3]
  EC50: > 120 µM (not active)
[4]
  EC50: > 120 µM (not active)
[5]
  EC50: > 120 µM (not active)
[6]
  EC50: 0.539 µM (active)

## CCOC(=O)c1[nH]c(Cc2[nH]c(C(=O)OCC)c(C)c2CCC(=O)OC)c(CCC(=O)OC)c1C
[3]
  EC50: 21.2 µM (active)
[4]
  EC50: 12.1 µM (active)
[5]
  EC50: > 120 µM (not active)

## Cc1c(C)c2c(c(C)c1O)CC[C@@](C)(C(=O)O)O2
Cytochrome P450 3A4
  AC50: 12.6 µM (inconclusive)
Cytochrome P450 1A2
  AC50: 20 µM (inconclusive)

## CC1CCN(C(=O)c2ccc(COc3ccccc3Cl)o2)CC1
Cytochrome P450 3A4
  AC50: 31.6 µM (inconclusive)
Cytochrome P450 2D6
  AC50: 28.2 µM (inconclusive)

## O=C(O)COc1ccccc1/C=N/NC(=O)c1cc2ccccc2cc1O
[3]
  EC50: > 120 µM (not active)
[4]
  EC50: 18.7 µM (active)
[5]
  EC50: > 120 µM (not active)

## COc1ccc(CN(C)S(=O)(=O)c2nnc(NC(=O)c3ccccc3Br)s2)cc1
Streptococcus
  EC50: 98.9 µM (active)
Streptokinase A
  EC50: 9.36 µM (active)
[1]
  EC50: 6.23 µM (active)

## Cc1cc(C)n(C(=O)/C(C#N)=N/Nc2cc(Cl)cc(Cl)c2)n1
Streptococcus
  EC50: 12.3 µM (active)
Streptokinase A
  EC50: > 150 µM (not active)
[1]
  EC50: 2.34 µM (active)

## CN1CCN(c2ncc3ncc(=O)n(Cc4cccs4)c3n2)CC1
Cytochrome P450 3A4
  AC50: 25.1 µM (inconclusive)

## NC(=O)c1cccc(N)c1 [3-AMINOBENZAMIDE]
Cytochrome P450 2D6
  AC50: 20 µM (inconclusive)
Cytochrome P450 1A2
  AC50: 39.8 µM (inconclusive)

## COc1ccc2nc(Nc3nc4cc5c(cc4s3)OCO5)sc2c1
Streptococcus
  EC50: > 150 µM (not active)
Streptokinase A
  EC50: > 150 µM (not active)
[1]
  EC50: 1.17 µM (active)

## O=C(NCC1CCCO1)/C(=C\c1ccco1)NC(=O)c1ccccc1 (stereo not drawn)
Cytochrome P450 1A2
  AC50: 14.1 µM (inconclusive)

## CCOc1ccc(-n2c(=O)[nH]cc(C(=O)Nc3ccc(OC)c(OC)c3)c2=O)cc1
INS1
  AC50: > 260 µM (inactive)

## CCC(C)Sc1ccc(-c2nc3ccc(C)cn3c2NCc2ccccc2)cc1OC (stereo not drawn)
INS1
  AC50: 6.7 µM (active)

## COc1ccc(OC)c(-n2c(C)cc(/C=C3\C(=N)N4N=C(CC(=O)N5CCOCC5)SC4=NC3=O)c2C)c1
Streptococcus
  EC50: 87.9 µM (active)
Streptokinase A
  EC50: > 150 µM (not active)
[1]
  EC50: 36.3 µM (active)

## CC(C)CN(C(=O)COC(=O)c1c(Cl)ccc(Cl)c1Cl)C1CCS(=O)(=O)C1 (stereo not drawn)
[3]
  EC50: > 120 µM (not active)
[4]
  EC50: > 120 µM (not active)
[5]
  EC50: > 120 µM (not active)

## CCCCSc1nnc(-c2ccc(C)cc2)n1C
Cytochrome P450 1A2
  AC50: 28.2 µM (inconclusive)

## Cc1nc2cnc(N(C)C)nc2n(Cc2cccs2)c1=O
Cytochrome P450 3A4
  AC50: 3.16 µM (inconclusive)
Cytochrome P450 2D6
  AC50: 12.6 µM (inconclusive)

## FC(F)(F)c1cc(Nc2ccccc2)nc(-c2ccccn2)n1
Streptococcus
  EC50: 88.6 µM (active)
Streptokinase A
  EC50: > 150 µM (not active)
[1]
  EC50: 9.52 µM (active)

## Cc1ccc(C23CC4CC(CC(C(=O)N5CCN(C)CC5)(C4)C2)C3)cc1
Streptococcus
  EC50: > 150 µM (not active)
Streptokinase A
  EC50: > 150 µM (not active)
[1]
  EC50: > 150 µM (not active)

## O=C(Nc1ccccc1)N(Cc1ccccc1)CC(O)C(F)(F)F (stereo not drawn)
Cytochrome P450 1A2
  AC50: 17.8 µM (inconclusive)

## CN1CCN(c2ncc3nc(-c4cc(F)cc(F)c4)c(=O)n(Cc4cccs4)c3n2)CC1
Cytochrome P450 3A4
  AC50: 25.1 µM (inconclusive)
Cytochrome P450 1A2
  AC50: 6.31 µM (inconclusive)

## O=C(NC1CCCCCC1)c1cccs1
Cytochrome P450 2D6
  AC50: 12.6 µM (inconclusive)
Cytochrome P450 2C19
  AC50: 3.98 µM (inconclusive)

## COc1ccc(-c2nnc(CSc3nnc(-c4ccncc4)n3C3CCCCC3)o2)cc1OC
[3]
  EC50: > 120 µM (not active)
[4]
  EC50: 39.4 µM (active)
[5]
  EC50: 16.3 µM (active)

## COc1ccc(C)cc1NC(=O)CSc1nnc(-c2ccc(OC)c(OC)c2)n1N
Cytochrome P450 2C19
  AC50: 28.2 µM (inconclusive)
Cytochrome P450 1A2
  AC50: 11.2 µM (inconclusive)

## O=c1cnc2cnc(OCc3ccccc3)nc2n1Cc1ccc(F)cc1
Cytochrome P450 2D6
  AC50: 39.8 µM (inconclusive)
Cytochrome P450 2C19
  AC50: 25.1 µM (inconclusive)

## COc1ccc(N2C(=O)NC(NC(=O)c3ccncc3)(C(F)(F)F)C2=O)cc1 (stereo not drawn)
Cytochrome P450 3A4
  AC50: 22.4 µM (inconclusive)

## CCCCN(C)CCCNC(=O)c1ccc(N2CCCC2=O)cc1
Cytochrome P450 1A2
  AC50: 0.126 µM (inconclusive)

## O=C(Cn1cc(C(F)(F)F)ccc1=O)N/N=C/c1cccc(Cl)c1Cl
[3]
  EC50: > 120 µM (not active)
[4]
  EC50: > 120 µM (not active)
[5]
  EC50: > 120 µM (not active)

## CN(C)S(=O)(=O)c1cccc(NC(=O)COC(=O)c2ccc(Br)o2)c1
Cytochrome P450 3A4
  AC50: 20 µM (inconclusive)

## CN(C)C(=O)c1ccc(-c2nc(N(C)Cc3ccco3)c3ccccc3n2)cc1
Cytochrome P450 2D6
  AC50: 39.8 µM (inconclusive)
Cytochrome P450 2C19
  AC50: 31.6 µM (inconclusive)

## CN(C(=O)CSc1nc(O)c(C#N)c(-c2ccc(C(C)(C)C)cc2)n1)C1CCCCC1
Streptococcus
  EC50: 20.3 µM (active)

## Cc1cc(C)c[n+](CC(=O)c2cc3ccccc3oc2=O)c1
Cytochrome P450 2D6
  AC50: 11.2 µM (inconclusive)
Cytochrome P450 1A2
  AC50: 22.4 µM (inconclusive)

## O=C(NNC(=S)NC(=O)c1cccc([N+](=O)[O-])c1)c1ccc(Br)cc1
Streptococcus
  EC50: 6.56 µM (active)
[1]
  EC50: 1.14 µM (active)

## COc1cc(O)nc(SCc2c(F)c(F)c(F)c(F)c2F)n1
[3]
  EC50: 13.9 µM (active)
[4]
  EC50: 66.4 µM (active)
[5]
  EC50: > 120 µM (not active)

## O=C(Nc1ccc([N+](=O)[O-])cc1)C(Cc1ccccc1)N1C(=O)c2cccc3cccc(c23)C1=O (stereo not drawn)
[3]
  EC50: > 120 µM (not active)
[4]
  EC50: > 120 µM (not active)
[5]
  EC50: > 120 µM (not active)

## COc1ccc(C2CC(=O)c3cnc(N4CCN(Cc5ccccc5)CC4)nc3C2)cc1 (stereo not drawn)
Streptococcus
  EC50: 21.6 µM (active)
Streptokinase A
  EC50: > 150 µM (not active)
[1]
  EC50: 14.9 µM (active)

## O=C(Nc1c(C(=O)N2CCCCC2)cnn1-c1ccccc1)c1ccco1
Cytochrome P450 3A4
  AC50: 17.8 µM (inconclusive)

## Cc1cc(C)c(S(=O)(=O)Nc2ccccc2C(F)(F)F)c(C)c1
Cytochrome P450 1A2
  AC50: 31.6 µM (inconclusive)

## O=C1CSC(c2ccccc2F)N1 (stereo not drawn)
INS1
  AC50: > 260 µM (inactive)

## O=C(c1csnn1)N1CCC[C@@]2(CCN(c3ccccn3)C2)C1
Cytochrome P450 3A4
  AC50: 6.31 µM (inconclusive)
Cytochrome P450 2D6
  AC50: 12.6 µM (inconclusive)

## OC[C@@H]1O[C@H](n2cnc3c(/C=C(\O)c4ccccc4)ncnc32)[C@H](O)[C@@H]1O
Cytochrome P450 1A2
  AC50: 0.501 µM (inconclusive)

## O=C(NC(=S)N1CCN(c2nc(-c3ccccc3)cs2)CC1)c1cccnc1
Streptococcus
  EC50: > 150 µM (not active)
Streptokinase A
  EC50: > 150 µM (not active)
[1]
  EC50: 5.55 µM (active)

## CC(C)n1c2ccccc2c2cc([N+](=O)[O-])ccc21
[3]
  EC50: > 120 µM (not active)
[4]
  EC50: 34.3 µM (active)
[5]
  EC50: 14.8 µM (active)

## COc1ccccc1NS(=O)(=O)c1cccc(C(=O)N/N=C/c2cn(-c3ccccc3)nc2-c2ccccc2)c1
[3]
  EC50: > 120 µM (not active)
[4]
  EC50: > 120 µM (not active)
[5]
  EC50: > 120 µM (not active)

## COc1ccccc1NC(=O)Cn1cc(C(=O)c2ccco2)c2ccccc21
INS1
  AC50: 9.44 µM (active)
